Assay results as given in ChEMBL document CHEMBL1201862, “PubChem BioAssay data set” (2004).
Active and inactive are the calls of the source.

Legend:
[1] = cells; assay type: functional, cell-based
[2] = target: T1, Nuclear receptor subfamily 0 group B member 1 (Homo sapiens, UniProt P51843); assay type: functional, cell-based;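 further: HEK293T cells transfected with SF-1 and DAX-1 plus StAR promoter luciferase reporter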
T1 sequence (P51843 whole entry): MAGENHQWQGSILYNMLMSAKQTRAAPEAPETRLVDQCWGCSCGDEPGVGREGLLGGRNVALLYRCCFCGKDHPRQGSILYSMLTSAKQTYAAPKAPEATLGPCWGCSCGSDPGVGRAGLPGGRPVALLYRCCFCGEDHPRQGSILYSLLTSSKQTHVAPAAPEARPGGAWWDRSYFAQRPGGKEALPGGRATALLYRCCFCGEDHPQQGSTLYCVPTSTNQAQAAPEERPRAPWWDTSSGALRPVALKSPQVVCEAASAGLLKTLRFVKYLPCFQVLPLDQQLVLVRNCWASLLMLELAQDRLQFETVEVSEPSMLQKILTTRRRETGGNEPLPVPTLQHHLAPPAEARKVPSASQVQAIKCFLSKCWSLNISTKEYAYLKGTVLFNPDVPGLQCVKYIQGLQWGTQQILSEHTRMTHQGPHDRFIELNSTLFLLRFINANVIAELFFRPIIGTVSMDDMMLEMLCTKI

[3] = target: Beta Lactamase (Pseudomonas aeruginosa, UniProt Q932Y6);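 further: confirmatory high-throughput screen measuring VIM-2 metallo-beta-lactamase inhibition by epi-absorbance in dose response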
[4] = target: Beta-lactamase (Pseudomonas aeruginosa, UniProt Q79MP6);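 further: biochemical dose-response test of metallo-beta-lactamase enzyme inhibition, read out by epi-absorbance; purified recombinant IMP-1 metallo-beta-lactamase with nitrocefin as substrate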
[5] = target: Beta-lactamase (Salmonella choleraesuis (strain SC-B67), UniProt Q5J463)
[6] = target: 26S proteasome non-ATPase regulatory subunit 14 (Homo sapiens, UniProt O00487); experiment: inhibition of proteasome subunit RPN11 – biochemical, fluorescence polarization, uHTS hits, confirmation (AID 602368); assay type: functional
[7] = target: 72 kDa type IV collagenase (Homo sapiens, UniProt P08253); experiment: Dose Response validation of uHTS RPN11 inhibitor hits using a MMP-2 Fluorescence assay.; assay type: functional
[8] = target: Prothrombin (Bos taurus, UniProt P00735); experiment: thrombin inhibition, dose response, biochemical, fluorescence polarization, uHTS hits (AID 602369); assay type: functional
[9] = target: T2, Low molecular weight phosphotyrosine protein phosphatase (Homo sapiens, UniProt P24666); assay type: functional; conditions: read-out: IC50_Mean
T2 sequence (P24666 whole entry): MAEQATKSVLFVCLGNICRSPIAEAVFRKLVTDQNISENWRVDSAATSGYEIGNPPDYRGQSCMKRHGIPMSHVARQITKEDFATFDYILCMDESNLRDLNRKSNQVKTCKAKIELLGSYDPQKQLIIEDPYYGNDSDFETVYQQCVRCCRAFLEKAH

[10] = target: T2, Low molecular weight phosphotyrosine protein phosphatase; assay type: functional; conditions: read-out: IC50_Mean; remark: listed apart in the source
[11] = target: Hepatocyte nuclear factor 4-alpha (Homo sapiens, UniProt P41235); assay type: functional, cell-based;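 further: biochemical luminescence-based dose-response counterscreen measuring inhibition of HNF4 dimerization, run alongside a screen for blockers of ABHD5–perilipin-5 interaction; split luciferase complementation of HNF4 fusion proteins in cell lysate measuring dimerization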
[12] = target: T3, ATP-dependent translocase ABCB1 (Homo sapiens, UniProt P08183); experiment: ABCG2 efflux pump inhibitor potency, dose response, Ig-MXP3 cells, JC-1, flow cytometry, set 2 (AID 504566); assay type: functional; conditions: read-out: EC50_MICROM_;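 further: flow cytometry median green fluorescence of retained JC-1 dye; potency of efflux pump inhibition measured as rising substrate retention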
[13] = target: T3, ATP-dependent translocase ABCB1; experiment: ABCB1 efflux inhibitor potency, dose response, Jurkat-DNR cells, JC-1, flow cytometry, set 2 (AID 504569); assay type: functional; conditions: read-out: EC50_MICROM_;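 further: potency of pump inhibitors that raise cellular JC-1 green fluorescence up to the nicardipine level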
[14] = HEK293 cell viability, dose response, counter-screen for EBV LMP1 inhibitor project, dry powder, set 2 (AID 624374); assay type: functional
[15] = LMP1-driven NF-kB reporter inhibition, dose response, cell-based, luciferase reporter, luminescence, dry powder, set 2 (AID 624376); assay type: functional
[16] = cells; assay type: functional
[17] = ARNT/TACC3 interaction disruptors, potency, confirmation, biochemical, AlphaScreen, cherry-picked samples (AID 651703); assay type: functional, Homo sapiens;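 further: His-tagged ARNT PAS-B domain paired with GST-TACC3 E629A dimer coactivator fragment; potency of inhibitors that break up the complex and lower AlphaScreen signal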

T3 sequence (P08183 whole entry): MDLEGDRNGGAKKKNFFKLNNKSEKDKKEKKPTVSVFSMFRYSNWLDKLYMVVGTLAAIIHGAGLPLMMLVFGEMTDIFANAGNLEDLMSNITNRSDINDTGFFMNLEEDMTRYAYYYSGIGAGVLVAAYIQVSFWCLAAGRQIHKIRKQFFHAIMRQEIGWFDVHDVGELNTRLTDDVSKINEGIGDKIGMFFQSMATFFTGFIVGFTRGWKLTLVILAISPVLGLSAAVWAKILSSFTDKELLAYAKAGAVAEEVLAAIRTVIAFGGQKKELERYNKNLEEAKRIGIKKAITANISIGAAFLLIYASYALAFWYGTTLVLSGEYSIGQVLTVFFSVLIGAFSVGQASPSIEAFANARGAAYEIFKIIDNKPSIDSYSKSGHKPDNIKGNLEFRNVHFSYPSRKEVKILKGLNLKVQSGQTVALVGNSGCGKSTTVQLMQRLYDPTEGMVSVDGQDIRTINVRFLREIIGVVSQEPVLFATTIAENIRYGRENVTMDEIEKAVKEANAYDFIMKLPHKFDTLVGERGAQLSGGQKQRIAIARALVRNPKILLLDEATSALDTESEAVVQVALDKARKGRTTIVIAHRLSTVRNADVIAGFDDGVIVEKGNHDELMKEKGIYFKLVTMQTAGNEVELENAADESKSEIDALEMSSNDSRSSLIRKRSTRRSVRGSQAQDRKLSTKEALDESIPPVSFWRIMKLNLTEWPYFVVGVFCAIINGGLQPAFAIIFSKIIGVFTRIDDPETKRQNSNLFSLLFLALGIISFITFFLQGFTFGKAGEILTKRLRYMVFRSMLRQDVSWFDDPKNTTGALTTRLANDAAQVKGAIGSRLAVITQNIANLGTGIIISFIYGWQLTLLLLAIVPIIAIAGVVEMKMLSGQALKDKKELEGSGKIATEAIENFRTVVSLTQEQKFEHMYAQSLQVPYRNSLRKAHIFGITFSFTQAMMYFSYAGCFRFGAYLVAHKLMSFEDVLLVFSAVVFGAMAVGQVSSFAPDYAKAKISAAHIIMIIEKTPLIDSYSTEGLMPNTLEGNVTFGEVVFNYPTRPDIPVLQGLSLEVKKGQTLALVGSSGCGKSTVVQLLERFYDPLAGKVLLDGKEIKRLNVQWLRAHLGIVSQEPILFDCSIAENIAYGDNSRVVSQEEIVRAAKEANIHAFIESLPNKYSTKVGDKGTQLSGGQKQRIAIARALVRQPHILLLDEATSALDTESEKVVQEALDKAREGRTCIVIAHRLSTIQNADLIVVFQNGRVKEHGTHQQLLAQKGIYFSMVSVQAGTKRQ
Beta-lactamase (Pseudomonas aeruginosa, UniProt Q79MP6), sequence (Q79MP6 whole entry): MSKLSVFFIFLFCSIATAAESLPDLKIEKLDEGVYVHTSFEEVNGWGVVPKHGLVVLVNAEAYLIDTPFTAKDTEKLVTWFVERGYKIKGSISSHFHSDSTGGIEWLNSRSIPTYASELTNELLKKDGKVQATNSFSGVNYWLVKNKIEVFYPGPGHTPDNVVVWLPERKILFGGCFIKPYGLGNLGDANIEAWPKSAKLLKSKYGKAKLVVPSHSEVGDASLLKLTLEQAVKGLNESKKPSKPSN
Hepatocyte nuclear factor 4-alpha, sequence (P41235 whole entry, the tested form may be a part): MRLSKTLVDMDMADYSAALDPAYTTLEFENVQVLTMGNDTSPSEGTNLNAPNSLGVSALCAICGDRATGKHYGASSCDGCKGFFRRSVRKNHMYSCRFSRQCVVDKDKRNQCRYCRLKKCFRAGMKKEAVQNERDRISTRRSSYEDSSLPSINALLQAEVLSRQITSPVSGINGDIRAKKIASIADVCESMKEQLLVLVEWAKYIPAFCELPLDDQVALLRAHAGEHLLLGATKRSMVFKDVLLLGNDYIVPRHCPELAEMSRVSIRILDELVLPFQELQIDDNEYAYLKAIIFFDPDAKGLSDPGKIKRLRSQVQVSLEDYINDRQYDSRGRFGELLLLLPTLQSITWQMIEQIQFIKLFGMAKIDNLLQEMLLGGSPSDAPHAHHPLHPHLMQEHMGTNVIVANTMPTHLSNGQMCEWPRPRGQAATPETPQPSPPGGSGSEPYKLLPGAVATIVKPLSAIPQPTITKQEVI
Beta-lactamase (Salmonella choleraesuis (strain SC-B67), UniProt Q5J463), sequence (Q5J463 whole entry): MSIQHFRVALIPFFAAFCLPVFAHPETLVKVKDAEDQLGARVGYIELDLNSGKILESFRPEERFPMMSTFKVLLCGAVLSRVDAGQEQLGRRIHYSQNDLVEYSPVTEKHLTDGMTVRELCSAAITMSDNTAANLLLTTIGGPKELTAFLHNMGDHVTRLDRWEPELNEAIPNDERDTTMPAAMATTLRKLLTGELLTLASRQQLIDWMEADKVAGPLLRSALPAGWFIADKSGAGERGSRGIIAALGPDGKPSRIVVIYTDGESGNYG
26S proteasome non-ATPase regulatory subunit 14, sequence (O00487 whole entry): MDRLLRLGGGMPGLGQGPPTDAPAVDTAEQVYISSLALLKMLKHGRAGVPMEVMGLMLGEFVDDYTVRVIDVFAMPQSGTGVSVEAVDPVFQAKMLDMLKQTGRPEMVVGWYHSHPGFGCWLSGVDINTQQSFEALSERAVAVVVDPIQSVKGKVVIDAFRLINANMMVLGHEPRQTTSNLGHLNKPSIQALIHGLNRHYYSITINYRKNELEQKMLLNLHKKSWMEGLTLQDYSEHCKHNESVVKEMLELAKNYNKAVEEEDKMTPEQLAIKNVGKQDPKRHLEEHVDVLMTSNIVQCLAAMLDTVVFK
72 kDa type IV collagenase, sequence (P08253 whole entry): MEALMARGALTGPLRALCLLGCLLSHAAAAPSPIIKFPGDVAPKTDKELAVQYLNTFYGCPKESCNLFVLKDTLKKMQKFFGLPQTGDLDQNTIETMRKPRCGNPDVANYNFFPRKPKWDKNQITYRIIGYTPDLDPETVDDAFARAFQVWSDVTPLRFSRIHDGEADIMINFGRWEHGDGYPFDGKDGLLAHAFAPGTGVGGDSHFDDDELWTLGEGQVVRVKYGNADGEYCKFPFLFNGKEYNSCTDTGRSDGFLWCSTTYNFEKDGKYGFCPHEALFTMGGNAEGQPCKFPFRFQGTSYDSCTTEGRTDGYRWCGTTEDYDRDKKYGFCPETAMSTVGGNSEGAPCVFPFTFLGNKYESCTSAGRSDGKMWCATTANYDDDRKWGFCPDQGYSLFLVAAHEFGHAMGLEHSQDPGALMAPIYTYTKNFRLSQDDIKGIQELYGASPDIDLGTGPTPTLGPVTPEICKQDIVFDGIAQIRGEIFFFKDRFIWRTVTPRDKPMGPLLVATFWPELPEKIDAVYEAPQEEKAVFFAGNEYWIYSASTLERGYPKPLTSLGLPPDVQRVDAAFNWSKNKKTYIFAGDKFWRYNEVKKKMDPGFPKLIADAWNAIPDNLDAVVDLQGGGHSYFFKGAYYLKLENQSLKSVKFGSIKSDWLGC
Beta Lactamase, sequence (Q932Y6 whole entry): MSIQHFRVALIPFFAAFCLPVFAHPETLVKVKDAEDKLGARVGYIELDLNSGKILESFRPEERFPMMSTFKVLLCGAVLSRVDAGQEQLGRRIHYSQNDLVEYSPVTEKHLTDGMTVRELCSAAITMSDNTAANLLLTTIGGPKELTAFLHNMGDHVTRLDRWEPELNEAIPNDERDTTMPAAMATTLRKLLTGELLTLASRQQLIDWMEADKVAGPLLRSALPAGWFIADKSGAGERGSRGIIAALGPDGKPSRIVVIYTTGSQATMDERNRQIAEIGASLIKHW

## CC(=O)c1sc(Nc2ccc(Oc3ccccc3)cc2)nc1C
[1]
  IC50: > 67.6 µM (inactive)
[2]
  IC50: > 67.6 µM (inactive)

## COc1ccc(C(=O)Nc2ccc(/C(C)=N/NC(=O)c3ccncc3)cc2)cc1
[3]
  IC50: > 59.6 µM (inactive)
[4]
  IC50: 10.9 µM (inactive)
[5]
  IC50: > 59.6 µM (inactive)
[6]
  IC50: 43 µM (active)
[7]
  IC50: > 100 µM (inactive)
[8]
  IC50: > 100 µM (inactive)
[9]
  IC50: > 80 µM (inactive)
[10]
  IC50: 8.92 µM (active)

## CC(C)(C)NC(=O)C(c1cc2ccccc2o1)n1c(=O)c(-c2ccco2)nc2ccccc21 (configuration not stated)
[11]
  IC50: 1.86 µM (active)

## O=C(c1ccco1)N1CCN(c2c3c(nc4cc(-c5cccc(F)c5)nn24)CCC3)CC1
[12]
  EC50: 7.76 µM (active)
[13]
  EC50: 6.31 µM (active)

## C[C@H](CO)N1C[C@H](C)[C@@H](CN(C)S(=O)(=O)c2cccc(F)c2)Oc2ncc(C#CC3CCCCC3)cc2C1=O
[14]
  AbsAC35: 324.37 µM
[15]
  AbsAC35: 44.29 µM

## Cc1nnc(N/N=C/c2ccc(-c3ccc(Br)cc3)o2)n1N
[16]
  IC50: 9.58 µM (active)
[17]
  AC50: 127 µM (active)
